What was measured:
C57BL/6J mice = experiment: T-maze spontaneous alternation test (spatial working memory); type: in vivo, mouse; settings: for spatial working memory (T maze test): systemic (intraperitoneal) injection, FIG. 11 left; for T maze performance: 5 mg/kg i.p. 1 h before
Experimental: In order to acutely deplete the gut microbiota, 15-16 months old SPF males were treated via oral gavage with a mixture of antibiotics (ABX), containing Cefoxitin (Santa Cruz Biotechnology), Gentamicin (Sigma-Aldrich) Metronidazole (Sigma-Aldrich), and Vancomycin (Hikma-pharma), each 10 mg/kg in sterile 1×PBS, for three consecutive days. On the fourth day, the mice were treated with one dose of Clindamycin hydrochloride (33.3 mg/kg) (Sigma-Aldrich). Fecal microbiota transplantations (FMTs) were started 24 h later. To deplete csf1-dependent cells in vivo, including microglia, mice were provided with CSF1R-inhibitor PLX5622 (Plexxicon Inc.) mixed into AIN-76A standard chow at 1200 mg/kg (Research Diets Inc.) ad libitum. Respective controls received AIN-76A standard chow. Mice were injected with 5 mg/kg δ-valerobetaine (MCAT, Germany) 1 h before behavioral testing.
For microbiota depletion studies, SPF mice were treated with 1 mg/ml of ampicillin (Auromedics), neomycin sulfate (Fisher), streptomycin (Sigma) and 0.5 mg/ml of vancomycin (Sagent) in the drinking water for 4-5 weeks (Khosravi et al., 2014). These mice were recolonized via FMT, which was achieved by oral gavage of a faecal slurry. Recipient mice had the food removed from the cage for 2 h prior to FMT. The faecal slurry was obtained by pooling faecal pellets from 8-14 donor mice. The pellets were weighed and resuspended by vortexing for 1 min in 1 mL PBS per 300 mg of faeces. After pelleting larger particles by centrifugation at 500×g for 5 min, the supernatant was collected for FMT. Each recipient mouse received 150 μl of faecal slurry by oral gavage. The remaining slurry was stored at −80° C. for 16S rRNA sequencing. Following FMT, the cages of recipient mice were replenished with dirty bedding and fresh faecal pellets from donor mice once and twice a week, respectively. Faecal pellets for 16S rRNA sequencing were collected the day before FMT and at the end of the experiment and were stored at −80° C. for DNA extraction. For re-colonization of ABX treated mice, FMTs from 8 weeks old or 15-16 months old males were undergone. Fresh fecal pellets are collected under a sterile hood and directly thoroughly homogenized in 0.1% L-Cysteine hydrochloride monohydrate in 1×PBS in order to maintain anaerobic microbes. The homogenates were spun down for 1 min, 200 g at 4° C. and the turbid supernatant was used to orally and rectally gavage the recipient mice. The FMT was performed twice 72 h apart.
NNN-trimethyl-5-aminovalerate was dissolved in 0.9% NaCl and administered i.p. at a dose of 200 mg/kg in a volume of 10 ml/kg. As control the vehicle NaCl was injected.
Mice were tested 40 min after drug- or vehicle injection or 4 weeks after FMT. We first performed the training run for the Novel-object recognition test, followed by the T maze test and then 6 h after the training session mice were tested in the Novel object recognition test. Spatial working memory was tested using the continuous spontaneous alternation task in a T-maze as described previously (Spowart-Manning, L. et al). Briefly, animals were set into the base of a T-maze and allowed to explore a randomly assigned T-maze arm until it returned to the base arm. Subsequently, the blocked arm was opened, and the animal was allowed to explore the complete maze. Once one arm of the T-maze was entered, the other arm was blocked until the animal returned to the base arm. Then, the exit of the base arm was blocked for 5 s and the animal was allowed to explore the maze again. The experiment was stopped after 14 free choice arm entries. Arm entries were scored as alternations if an animal chose the opposing arm compared to the arm visited immediately prior to the scored instance. The Novel Object Recognition (NOR) task was applied to evaluate recognition memory as published previously (Antunes, M. & Biala, G. et al). During the habituation phase, each mouse was allowed to explore two similar objects within a total exploration time of 20 s. […]

[1] = Untargeted metabolomics of blood serum and brain tissue; type: in vivo, mouse; settings: inferred from similarly elevated levels in serum and brain tissue of old mice
Experimental: Blood serum and hippocampal brain tissue was removed from young and old mice and snap-frozen in liquid nitrogen after determining the weight. Sample analysis was conducted by Metabolon, Inc. using a proprietary series of organic and aqueous extractions to remove the protein content while allowing maximum recovery of small molecules. The extract was divided into two parts: one for analysis by LC and the other for analysis by GC. TurboVap® (Zymark) was used to remove the organic solvent content. Each sample was then frozen and dried under vacuum. The exact methodology can be provided by Metabolon, Inc. as their standard protocol for untargeted mass spectrometry metabolomics.
Samples were snap-frozen upon collection and stored at −80° C. until further processing at Metabolon, Inc. 52. Briefly, recovery standards were added prior to the first step in the extraction process for quality control purposes. […] Three types of controls were analyzed in concert with the experimental samples: samples generated from a pool of spike-in controls extensively characterized by Metabolon, Inc. or generated from a small portion of each experimental sample of interest served as technical replicate throughout the data set; extracted water samples served as process blanks; and a cocktail of standards spiked into every analyzed sample allowed instrument performance monitoring. […]

For `C[N+](C)(C)CCCCC(=O)[O-]` [NNN-trimethyl-5-aminovalerate, 5-(trimethylammonio) pentanoate], the “T maze: improvement in learning and memory after FMT from young mice” value (C57BL/6J mice; old mice (15-16 months) +ABX+yFMT, 5 mg/kg i.p. 1 h before testing, FIG. 10F) was “abolished”, the “spatial working memory (T maze test)” value (C57BL/6J mice; old mice (20-24-month-old)) was “no additional impairing effects” and the T maze performance (C57BL/6J mice; old mice that had received gut microbiota from old mice (old+ABX+oFMT), FIG. 10F) was “no additional deteriorating effect”. The T maze performance (C57BL/6J mice; young adult mice (8 weeks), versus vehicle, FIG. 10B) was “significantly worse”, the “spatial working memory (T maze test)” value (C57BL/6J mice; young mice (2-month-old), PBS control) was “reduced” and the blood-brain barrier crossing [1] was “cross the blood-brain barrier”.

Reference: patent US20260276656A1, “GUT MICROBIOTA-RELATED METHODS FOR TREATING DEMENTIA AND AGE-DEPENDENT COGNITIVE DECLINE” (Albert-Ludwigs-Universitat Freiburg, priority 2019, published 2026)
